Source: paper PMC10300155, “Inhibition of TRPV4 remodels single cell polarity and suppresses the metastasis of hepatocellular carcinoma” (Cell Death & Disease, 2023)

Assays:
[1] = biological target: T1, TRPV4 (native, MHCC-97H cells) (Homo sapiens, UniProt Q9HBA0); test: Fluo-4 AM calcium influx, flow cytometry; assay type: cell-based; conditions: inhibitor; 0.5 h pre-treatment; agonist GSK1016790A; adherent MHCC-97H cells
T1 construct: endogenous channel in human hepatocellular carcinoma MHCC-97H cells
T1 sequence (Q9HBA0 whole entry): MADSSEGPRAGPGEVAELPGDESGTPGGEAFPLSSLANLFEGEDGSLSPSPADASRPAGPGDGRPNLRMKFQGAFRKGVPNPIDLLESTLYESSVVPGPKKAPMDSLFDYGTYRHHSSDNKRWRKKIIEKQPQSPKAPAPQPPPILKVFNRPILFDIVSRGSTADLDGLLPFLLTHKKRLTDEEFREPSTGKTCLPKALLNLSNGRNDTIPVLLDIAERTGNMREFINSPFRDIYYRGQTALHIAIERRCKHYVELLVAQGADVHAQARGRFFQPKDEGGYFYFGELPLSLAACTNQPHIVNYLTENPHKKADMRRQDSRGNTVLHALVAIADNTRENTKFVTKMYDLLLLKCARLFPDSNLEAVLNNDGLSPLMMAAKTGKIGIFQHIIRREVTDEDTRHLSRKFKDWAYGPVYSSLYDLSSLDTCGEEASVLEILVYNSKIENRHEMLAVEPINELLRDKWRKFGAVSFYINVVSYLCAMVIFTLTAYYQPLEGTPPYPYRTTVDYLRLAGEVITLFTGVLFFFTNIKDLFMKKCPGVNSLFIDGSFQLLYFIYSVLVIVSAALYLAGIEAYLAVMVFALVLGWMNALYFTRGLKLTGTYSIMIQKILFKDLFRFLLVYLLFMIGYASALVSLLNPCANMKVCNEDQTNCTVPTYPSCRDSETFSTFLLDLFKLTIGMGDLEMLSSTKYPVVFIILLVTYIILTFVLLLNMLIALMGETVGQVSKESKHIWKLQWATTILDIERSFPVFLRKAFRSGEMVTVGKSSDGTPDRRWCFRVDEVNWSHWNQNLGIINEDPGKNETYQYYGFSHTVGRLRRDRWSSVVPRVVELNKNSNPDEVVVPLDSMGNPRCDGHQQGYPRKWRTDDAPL

[2] = biological target: T2, TRPV4 (purified, fluorescently labeled) (Homo sapiens, UniProt Q9HBA0); test: microscale thermophoresis (Monolith NT.[…]); assay type: binding
T2 construct: purified protein, fluorescently labeled for MST
T2 sequence (Q9HBA0 whole entry): as above

COc1c(OCCCCN2CCCC2)cc(O)c2c(=O)cc(-c3ccccc3)oc12 [GL-V9, 5-hydroxy-8-methoxy-2-phenyl-7-(4-(pyrro-lidin-1-yl)butoxy)4H-chromen-4-one]
Fluo-4 AM calcium influx, flow cytometry [1]: substantially reduced the calcium influx brought on by GSK1016790A
Kd [2]: 106 nM
